Experimental findings from patent US20250387410A1, “TREATMENT OF ANTI-VEGF REFRACTORY OPHTHALMIC RETINAL EYE CONDITIONS” (Eye Co Pty Ltd., priority 2022, published 2025) are described below.

In one data set the test system is MIO-M1 cells. Nature of the data set: MTT assay, cell viability of MIO-M1 cells. Type of data set: cell-based, human. An excerpt: (§1) The immortalised retinal cells used were as follows: MIO-M1 cells (Muller cell-derived; Müller 1 Moorefields, Institute of Ophthalmology, Dr A. Limb, Institute of Ophthalmology, University College, UK); ARPE19 (RPE-derived; ATCC CRL-2302, American Tissue Culture Collection, VA, USA); and 661W cells (photoreceptor-like derived; kindly gifted by Dr Muayyad R. Al-Ubaidi, Department of Cell Biology, University of Oklahoma Health Sciences Centre, Oklahoma City, OK, USA). Cells were authenticated and validated from Cell Bank Australia.
The immortalised retinal cell lines MIO-M1, 661W and ARPE19 were used to undertake the MTT assay to assess cell metabolic activity, based on the cell's availability of NAPDH. Treatments included exposure to one of FA (10-0.01 μg/μl, provided by Professor Ben Boyd, Monash University, Australia), TA (10-0.01 μg/p, Honeywell, USA) and Dexamethasone (10-0.0001 μg/μl, Sigma-Aldrich, MO, USA). All corticosteroids used in vitro were dissolved in 20% dimethyl sulfoxide (DMSO) (Sigma-Aldrich, MO, USA) and ultrapure endotoxin 0.1M PBS (Thermo Fisher Scientific, MA, USA). At the 12-hour time point following addition of the corticosteroid, 10p of MTT reagent (Roche, Switzerland) was added to each well. To protect against light, plates were wrapped in foil and stored in the dark at 37° C. for 4 hours at 5.0% CO2. Cells were monitored using a bright field Zeiss Axiovert 200 inverted microscope (Carl Zeiss Meditec, Dublin, CA. USA) for formation of insoluble purple formazan precipitate crystals in viable cells. Subsequently 100p of MTT solubilisation solution was added and once again incubated in darkness at 37° C., 5.0% CO2 for 24 hours. Quantification of the MTT assay was performed by measuring the absorbance at 570 nm using Tecan Infinite® 200 PRO (Tecan, Mannedorf, Switzerland).
For orientation: Tetrazolium assays rely on reduction of a dye to a coloured formazan, in cell work by metabolically active cells.

Data set [1] relates to Ccl2, Il-6, Il-8 expression in MIO-M1 cells. Nature of the data set: IL-1β stimulation of MIO-M1 cells, cytokine gene expression by QRT-PCR. Particulars: 1 μg/μl steroid, 1 ng/μl IL-1β, 12 h, versus IL-1β alone. It counts as cell-based, human.
Source text: as §1
IL-1β and TNF-α were administered to MIO-M1 cells to initiate an inflammatory response in order to test the anti-inflammatory properties of the selected corticosteroids. MIO-M1 cells were grown to a cell density of 50,000 cells per well in a 24 well plate using growth media and foetal bovine serum as described (Section 2.1.1). MIO-M1 cells were challenged with either 1 ng/μl of IL-1β or TNF-α (R&D Systems, MN, USA). Experimental wells were treated with either 1 μg/μl FA, TA or Dexamethasone. […]
Following purification of RNA, cDNA was synthesized using the Bioline Tetro kit (Bioline, Australia) as per the manufacturer's instructions. Quantitative Real Time Polymerase Chain Reaction (QRT-PCR) was undertaken to profile gene expression changes in animal and cell culture samples. […] Data was analysed using the QuantStudio 12K Flex Software (Applied Biosystems, USA).

Data set [2] deals with Il-1b-stimulated MIO-M1 cells. Nature of the data set: Co-incubation with selective receptor antagonists in Il-1b-stimulated MIO-M1 cells. Type of data set: cell-based, human. Particulars: stimulated Muller (MIO-M1) cells, receptor blockers. The procedure:
FIG. 3 Contribution of glucocorticoid and mineralocorticoid receptor signalling to the anti-inflammatory effect of FA in vitro.
IL-1β and TNF-α were administered to MIO-M1 cells to initiate an inflammatory response in order to test the anti-inflammatory properties of the selected corticosteroids. MIO-M1 cells were grown to a cell density of 50,000 cells per well in a 24 well plate using growth media and foetal bovine serum as described (Section 2.1.1). MIO-M1 cells were challenged with either 1 ng/μl of IL-1β or TNF-α (R&D Systems, MN, USA). Experimental wells were treated with either 1 μg/μl FA, TA or Dexamethasone. Twelve hours post addition, growth medium was removed from each well and replaced with 860 μl of TRIzol (Thermo Fisher Scientific, MA, USA), agitated approximately 20 times and then placed in a clean 1.5 ml Eppendorf tube to extract ribonucleic acid (RNA).
Following purification of RNA, cDNA was synthesized using the Bioline Tetro kit (Bioline, Australia) as per the manufacturer's instructions. Quantitative Real Time Polymerase Chain Reaction (QRT-PCR) was undertaken to profile gene expression changes in animal and cell culture samples. TaqMan hydrolysis probes (Applied Biosystems, USA) and Gene Expression Master Mix (Applied Biosystems, USA) were used. A clear 384 well plate (Applied Biosystems, USA) was used with each biological sample plated in duplicate. A reaction mixture per sample was set up and included 0.5 μl cDNA, 4 μl Rnase Free Water, 5 μl Gene Expression Master Mix and 0.5 μl Taqman Primer Probe (Thermo Fisher Scientific), as listed in Table 2.5. The amplification of each sample was undertaken using a QuantStudio 12K Flex QRT-PCR machine (Applied Biosystems, USA). GAPDH was used as the reference gene using the comparative cycle threshold (Ct) method (ΔΔCt), as it is known not to change expression following retinal photo-oxidative damage. Data was analysed using the QuantStudio 12K Flex Software (Applied Biosystems, USA).

The subject of data set [3] is C57BL/6J mice, photo-oxidative damage (PD). Nature of the data set: Photo-oxidative damage (PD) model of retinal degeneration, intravitreal injection. Type of data set: in vivo, mouse. Particulars: for ONL thickness (OCT): 1-2 mm and 2-3 mm from the optic nerve, about 1 mg/ml in vitreous; for ONL thickness (OCT) / a-wave and b-wave ERG responses: versus controls; for a-wave and b-wave ERG responses: scotopic; for IBA1+ macrophages in the outer retina: versus control. The text has this:
All experiments conducted were in accordance with the ARVO Statement for Use of Animals in Ophthalmic and Vision Research, and with approval from the ANU Animal Experimentation Ethics Committee (AEEC, protocol #A2014/56). C57BL/6J mice aged 60 post-natal days were used in this study. Animals were born, reared and held under dim light conditions (5 lux) prior to photo-oxidative damage.
In vivo cross-sectional and fundus images of the mouse retina were acquired using Optical Coherence Tomography (OCT).
Intravitreal injections were performed on C57BL/6J mice aged 60 post-natal days. Treatments included exposure to FA or TA dissolved in Suspension (comprised of 0.5% w/v carboxymethyl cellulose and 0.4% v/v Tween 80). The final concentration of drug in the vitreous chamber is estimated to be as 1 mg/ml.
Age-matched C57BL/6J mice (60 post-natal days) were exposed to continuous 100K lux white LED light for 5 days with access to food and water ad libitum. During this time, 1% atropine sulphate (Minims 1% atropine sulphate eye drops; Bausch and Lomb, USA) was administered to both eyes twice daily to dilate the pupils. Animals were subsequently euthanised with carbon dioxide (CO2).
Electroretinography (ERG) was used to assess the retinal function response of rodents to full-field flash stimuli under scotopic conditions. Dim-reared control and photo-oxidative damaged animals were used, using known methods.
Animals were dark-adapted overnight before the commencement of ERG experiments. Animals were anaesthetised as previously described, and all retinal recordings were undertaken in a dark room with minimal red light source.
Terminal deoxynucleotidyl transferase (Tdt) dUTP nick end labelling (TUNEL) is an established technique used to detect apoptotic and necrotic cells.
The retina was evenly divided into 8 quadrants. Each quadrant was viewed using a confocal microscope (LSM 5, Zeiss, Germany) and TUNEL^+ and IBA1^+ cells were identified and counted. Data were graphed and analysed using Prism 6 software (GraphPad Software, CA, USA).

[4] abbreviates: 5 days PD, intravitreal, listed as Suspension+FA.

Entries after “also recorded” stand apart in the source; their conditions may differ.

As to `CC(=O)OCC(=O)[C@@]1(O)CC[C@H]2[C@@H]3CCC4=CC(=O)CC[C@]4(C)[C@@]3(F)[C@@H](O)C[C@@]21C` [FA, 9-α-Fluoro-11 β. 17 α, 21-trihydroxy-4-pregnene-3, 20 dione acetate], the “viability of MIO-M1 cells at 1 μg/μl” value in the data set with MIO-M1 cells (1 μg/μl) is “does not significantly alter cell viability”. In addition, the “viability of MIO-M1 cells at the highest concentration” value with MIO-M1 cells (10 ug/uL, compared to DMSO-only group) is listed as “slight reduction”. Besides, in the data set with MIO-M1 cells (10-0.01 μg/μl, 12 h, compared to DMSO-only group), the “viability of MIO-M1 cells (MTT assay)” value is “do not induce toxicity; also recorded: no significant effect”. In addition, the “Ccl2, Il-6, and Il-8 expression after IL-1β stimulation” value in data set [1] was “drastically reduced; also recorded: suppressed to near baseline levels”. Besides, the “receptor mediating the impact on expression of CCL2, IL-6 and IL-8” value in data set [2] is reported as “mediated through the glucocorticoid receptor; also recorded: dependent on glucocorticoid receptor signalling”. For the same molecule, in data set [3] (5 days PD, intravitreal), the “ONL thickness (OCT)” value is reported as “significant preservation”; the “a-wave and b-wave ERG responses” value is given as “significantly larger”; the “IBA1+ macrophages in the outer retina” value was “significant reduction”. Further, in data set [3] (setting [4]), the “ONL thickness (OCT)” value is on record as “significantly greater”; the “a-wave and b-wave ERG responses” value is recorded as “significantly higher”; the “IBA1+ macrophages in the outer retina” value is given as “significant decrease”. The “TUNEL+ photoreceptors (outer retina)” value in data set [3] (5 days PD, intravitreal, versus vehicle/controls) is listed as “significantly fewer”. The “photoreceptor survival in PD” value in data set [3] (intravitreal injection, mice) is “improves photoreceptor survival”.
